Data reported in PubChem BioAssay (NCI).
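Five concentrations, 48 hours, 96-well plates. TGI marks complete inhibition of growth.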

Experiments:
Test in all cases: NCI anticancer screen, dose series, 48 h
UO-31 renal = test system: UO-31 renal
A498 renal = test system: A498 renal
IGROV1 ovarian = test system: IGROV1 ovarian
MOLT-4 leukemia = test system: MOLT-4 leukemia
LOX IMVI melanoma = test system: LOX IMVI melanoma
NCI-H460 lung = test system: NCI-H460 lung
HS 578T breast = test system: HS 578T breast
HOP-92 NSCLC = test system: HOP-92 NSCLC
SW-620 colon = test system: SW-620 colon
EKVX NSCLC = test system: EKVX NSCLC
ACHN renal = test system: ACHN renal
KM12 colon = test system: KM12 colon
RXF 393 renal = test system: RXF 393 renal
NCI-H522 lung = test system: NCI-H522 lung
MDA-MB-435 = test system: MDA-MB-435
OVCAR-4 ovarian = test system: OVCAR-4 ovarian
RPMI-8226 leukemia = test system: RPMI-8226 leukemia
A549 NSCLC = test system: A549 NSCLC
NCI/ADR-RES ovarian = test system: NCI/ADR-RES ovarian
HCT-15 colon = test system: HCT-15 colon

Structure (SMILES)	TGI (UO-31 renal)	TGI (A498 renal)	TGI (IGROV1 ovarian)	TGI (MOLT-4 leukemia)	TGI (LOX IMVI melanoma)	TGI (NCI-H460 lung)	TGI (HS 578T breast)	TGI (HOP-92 NSCLC)	TGI (SW-620 colon)	TGI (EKVX NSCLC)	TGI (ACHN renal)	TGI (KM12 colon)	TGI (RXF 393 renal)	TGI (NCI-H522 lung)	TGI (MDA-MB-435)	TGI (OVCAR-4 ovarian)	TGI (RPMI-8226 leukemia)	TGI (A549 NSCLC)	TGI (NCI/ADR-RES ovarian)	TGI (HCT-15 colon)
CC(=O)OC[C@@]1(C)[C@@H]2[C@@H]3[C@@]4(CO[C@]3(C)C(=O)[C@@]3(O)C[C@H](C)[C@H](OC(C)=O)[C@@H]3[C@H]4OC(C)=O)[C@H](OC(=O)c3ccccc3)C[C@@H]21	> 100 µM	> 100 µM	> 100 µM	> 100 µM	> 100 µM	> 100 µM	> 100 µM	> 100 µM	> 100 µM	> 100 µM	> 100 µM	> 100 µM	> 100 µM	> 100 µM	> 100 µM	> 100 µM	> 100 µM	> 100 µM	> 100 µM	> 100 µM
CC(C)(C)C1(O)C=C(O)C(=O)N1NC(=O)c1ccccc1Nc1ccccc1 (stereo not given)	> 100 µM	> 100 µM	> 100 µM	29 µM	> 100 µM	> 100 µM	> 100 µM	> 100 µM	> 100 µM	> 100 µM	> 100 µM	> 100 µM	> 100 µM	81.2 µM	> 100 µM	> 100 µM	> 100 µM	> 100 µM	> 100 µM	> 100 µM
CC(C)n1c(=O)[nH]n(-c2ccccc2)c1=O	> 100 µM	> 100 µM	> 100 µM	> 100 µM	> 100 µM	> 100 µM	> 100 µM	> 100 µM	> 100 µM	> 100 µM	> 100 µM	> 100 µM	> 100 µM	> 100 µM	> 100 µM	> 100 µM	> 100 µM	> 100 µM	> 100 µM	> 100 µM
O=C(Nc1sccc1S(=O)(=O)c1ccc(Cl)cc1)c1ccccc1	> 100 µM	> 100 µM	> 100 µM	> 100 µM	> 100 µM	> 100 µM	> 100 µM	> 100 µM	> 100 µM	> 100 µM	> 100 µM	> 100 µM	> 100 µM	> 100 µM	> 100 µM	> 100 µM	> 100 µM	> 100 µM	> 100 µM	> 100 µM
CC1(C)CCCCCCC2CC2CCCCCC(C)(C)C1=O (stereo not given)	> 100 µM	> 100 µM	> 100 µM	> 100 µM	63.6 µM	> 100 µM	> 100 µM	> 100 µM	> 100 µM	> 100 µM	> 100 µM	> 100 µM	> 100 µM	> 100 µM	> 100 µM	> 100 µM	70.1 µM	> 100 µM	> 100 µM	> 100 µM
CC1=NN(C(=O)CC(=O)Nc2cccc(C)c2)C(=O)C1N=Nc1ccc(S(=O)(=O)c2ccc(N=NC3C(=O)N(C(=O)CC(=O)Nc4cccc(C)c4)N=C3C)cc2)cc1 (stereo not given)	> 100 µM	> 100 µM	> 100 µM	> 100 µM	> 100 µM	> 100 µM	> 100 µM	> 100 µM	> 100 µM	> 100 µM	> 100 µM	> 100 µM	> 100 µM	> 100 µM	> 100 µM	> 100 µM	> 100 µM	> 100 µM	> 100 µM	> 100 µM
